Test results from patent publication US20240059671A1, “TYROSINE KINASE 2 (TYK2) DEGRADATION COMPOUNDS AND METHODS OF USE” (CULLGEN (SHANGHAI), INC., priority 2020, published 2024).

Target: TYK2 (Homo sapiens, UniProt P29597)
Assay: TYK2 protein degradation in MOLT-4 cells by immunoblotting
Assay type: cell-based
Parameters: endogenous in cells; host or cells: MOLT-4
Settings: MOLT-4 cells, 24 hours
Description: MOLT-4 cells were treated with compounds at 0.5 and 5 μM concentrations for 24 hours.
MOLT-4 cells were treated with CPD-038, CPD-039, and CPD-040 at 0.04, 0.2, 1, and 5 μM concentrations for 24 hours.
MOLT-4 or NOMO-1 cells were cultured at 37° C. with 5% CO2 in RPMI 1640 Medium supplemented with 10% fetal bovine serum. Cells were authenticated using the short tandem repeat (STR) assays. Mycoplasma test results were negative.
Cultured cells were washed with cold PBS once and lysed in cold RIPA buffer supplemented with protease inhibitors and phosphatase inhibitors (Beyotime Biotechnology). The solutions were then incubated at 4° C. for 30 minutes with gentle agitation to fully lyse cells. Cell lysates were centrifuged at 13,000 rpm for 10 minutes at 4° C. and pellets were discarded. Total protein concentrations in the lysates were determined by BCA assays (Beyotime Biotechnology). Cell lysates were mixed with Laemmli loading buffer to 1× and heated at 99° C. for 5 min. Proteins were resolved on SDS-PAGE and visualized by chemiluminescence. Images were taken by a ChemiDoc MP Imaging system (Bio-Rad). Protein bands were quantitated using the accompanied software provided by Bio-Rad.
The percentage of TYK2 protein degradation of each compound at 0.5 and 5 μM determined in MOLT-4 cells as described in Methods.

Chain of TYK2 (P29597 whole entry): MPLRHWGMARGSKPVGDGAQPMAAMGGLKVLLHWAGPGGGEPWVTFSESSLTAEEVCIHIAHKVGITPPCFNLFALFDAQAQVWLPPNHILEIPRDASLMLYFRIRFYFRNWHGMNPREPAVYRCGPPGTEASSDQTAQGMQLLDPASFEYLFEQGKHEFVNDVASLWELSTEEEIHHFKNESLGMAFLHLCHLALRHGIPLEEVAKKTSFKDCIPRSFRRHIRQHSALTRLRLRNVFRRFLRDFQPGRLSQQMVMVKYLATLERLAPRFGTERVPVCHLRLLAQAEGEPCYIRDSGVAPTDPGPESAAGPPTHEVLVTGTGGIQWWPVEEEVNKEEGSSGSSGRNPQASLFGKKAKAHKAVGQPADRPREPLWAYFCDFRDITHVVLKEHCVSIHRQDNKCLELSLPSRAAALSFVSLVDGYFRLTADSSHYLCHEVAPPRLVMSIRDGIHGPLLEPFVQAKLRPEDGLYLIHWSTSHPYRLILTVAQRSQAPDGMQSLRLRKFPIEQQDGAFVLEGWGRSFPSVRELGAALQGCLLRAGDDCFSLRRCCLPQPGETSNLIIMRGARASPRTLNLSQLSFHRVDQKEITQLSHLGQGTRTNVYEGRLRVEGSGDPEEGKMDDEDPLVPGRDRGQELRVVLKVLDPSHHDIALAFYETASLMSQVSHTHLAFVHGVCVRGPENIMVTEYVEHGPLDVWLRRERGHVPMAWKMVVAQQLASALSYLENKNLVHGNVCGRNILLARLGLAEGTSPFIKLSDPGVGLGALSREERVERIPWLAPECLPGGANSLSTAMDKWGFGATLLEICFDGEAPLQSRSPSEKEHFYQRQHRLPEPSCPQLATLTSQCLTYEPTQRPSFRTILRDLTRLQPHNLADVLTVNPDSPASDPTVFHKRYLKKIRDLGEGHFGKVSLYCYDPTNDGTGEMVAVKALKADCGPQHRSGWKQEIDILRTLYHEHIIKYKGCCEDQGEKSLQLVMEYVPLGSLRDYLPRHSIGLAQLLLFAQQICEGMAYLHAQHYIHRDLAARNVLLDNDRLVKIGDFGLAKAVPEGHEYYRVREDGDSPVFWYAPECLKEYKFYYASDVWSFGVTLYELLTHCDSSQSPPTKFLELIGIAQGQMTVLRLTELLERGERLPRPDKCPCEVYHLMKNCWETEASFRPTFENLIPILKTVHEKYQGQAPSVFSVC

SMILES | TYK2 Degradation (0.5 μM) [%] | TYK2 Degradation (5 μM) [%]
CNC(=O)c1nnc(NC(=O)C2CC2)cc1Nc1cccc(-c2ncn(CCNC(=O)CCOCCOCCNc3ccc4c(c3)C(=O)N(C3CCC(=O)NC3=O)C4=O)n2)c1OC (centres unmarked) [CPD-019, 6-(Cyclopropanecarboxamido)-4-((3-(1-(2-(3-(2-(2-((2-(2,6-dioxopiperidin-3-yl)-1,3-dioxoisoindolin-5-yl)amino)ethoxy)ethoxy)propanamido)ethyl)-1H-1,2,4-triazol-3-yl)-2-methoxyphenyl)amino)-N-methylpyridazine-3-carboxamide] | ≤20 | –
CNC(=O)c1nnc(NC(=O)C2CC2)cc1Nc1cccc(-c2ncn(CCNC(=O)CCOCCOCCOCCNc3ccc4c(c3)C(=O)N(C3CCC(=O)NC3=O)C4=O)n2)c1OC (centres unmarked) [CPD-020, 6-(Cyclopropanecarboxamido)-4-((3-(1-(1-((2-(2,6-dioxopiperidin-3-yl)-1,3-dioxoisoindolin-5-yl)amino)-12-oxo-3,6,9-trioxa-13-azapentadecan-15-yl)-1H-1,2,4-triazol-3-yl)-2-methoxyphenyl)amino)-N-methylpyridazine-3-carboxamide] | ≤20 | –
CNC(=O)c1nnc(NC(=O)C2CC2)cc1Nc1cccc(-c2ncn(CCNC(=O)CCOCCOCCOCCOCCNc3ccc4c(c3)C(=O)N(C3CCC(=O)NC3=O)C4=O)n2)c1OC (centres unmarked) [CPD-021, 6-(Cyclopropanecarboxamido)-4-((3-(1-(1-((2-(2,6-dioxopiperidin-3-yl)-1,3-dioxoisoindolin-5-yl)amino)-15-oxo-3,6,9,12-tetraoxa-16-azaoctadecan-18-yl)-1H-1,2,4-triazol-3-yl)-2-methoxyphenyl)amino)-N-methylpyridazine-3-carboxamide] | ≤20 | ≤20
CNC(=O)c1nnc(NC(=O)C2CC2)cc1Nc1cccc(-c2ncn(CCNC(=O)CCOCCOCCOCCOCCOCCNc3ccc4c(c3)C(=O)N(C3CCC(=O)NC3=O)C4=O)n2)c1OC (centres unmarked) [CPD-022, 6-(Cyclopropanecarboxamido)-4-((3-(1-(1-((2-(2,6-dioxopiperidin-3-yl)-1,3-dioxoisoindolin-5-yl)amino)-18-oxo-3,6,9,12,15-pentaoxa-19-azahenicosan-21-yl)-1H-1,2,4-triazol-3-yl)-2-methoxyphenyl)amino)-N-methylpyridazine-3-carboxamide] | 40 | ≤20
CNC(=O)c1nnc(NC(=O)C2CC2)cc1Nc1cccc(-c2ncn(CCNC(=O)CCCCCNc3ccc4c(c3)C(=O)N(C3CCC(=O)NC3=O)C4=O)n2)c1OC (centres unmarked) [CPD-023, 6-(Cyclopropanecarboxamido)-4-((3-(1-(2-(6-((2-(2,6-dioxopiperidin-3-yl)-1,3-dioxoisoindolin-5-yl)amino)hexanamido)ethyl)-1H-1,2,4-triazol-3-yl)-2-methoxyphenyl)amino)-N-methylpyridazine-3-carboxamide] | ≤20 | ≤20
CNC(=O)c1nnc(NC(=O)C2CC2)cc1Nc1cccc(-c2ncn(CCNC(=O)CCCCCCCNc3ccc4c(c3)C(=O)N(C3CCC(=O)NC3=O)C4=O)n2)c1OC (centres unmarked) [CPD-024, 6-(Cyclopropanecarboxamido)-4-((3-(1-(2-(8-((2-(2,6-dioxopiperidin-3-yl)-1,3-dioxoisoindolin-5-yl)amino)octanamido)ethyl)-1H-1,2,4-triazol-3-yl)-2-methoxyphenyl)amino)-N-methylpyridazine-3-carboxamide] | ≤20 | 30
CNC(=O)c1nnc(NC(=O)CNC(=O)COCC(=O)N[C@H](C(=O)N2C[C@H](O)C[C@H]2C(=O)NCc2ccc(-c3scnc3C)cc2)C(C)(C)C)cc1Nc1cccc(-c2ncn(C)n2)c1OC [CPD-025, 6-(2-(2-(2-(((S)-1-((2S,4R)-4-Hydroxy-2-((4-(4-methylthiazol-5-yl)benzyl)carbamoyl)pyrrolidin-1-yl)-3,3-dimethyl-1-oxobutan-2-yl)amino)-2-oxoethoxy)acetamido)acetamido)-4-((2-methoxy-3-(1-methyl-1H-1,2,4-triazol-3-yl)phenyl)amino)-N-methylpyridazine-3-carboxamide] | ≤20 | ≤20
CNC(=O)c1nnc(NC(=O)CNC(=O)CCOCCC(=O)N[C@H](C(=O)N2C[C@H](O)C[C@H]2C(=O)NCc2ccc(-c3scnc3C)cc2)C(C)(C)C)cc1Nc1cccc(-c2ncn(C)n2)c1OC [CPD-026, 6-(2-(3-(3-(((S)-1-((2S,4R)-4-Hydroxy-2-((4-(4-methylthiazol-5-yl)benzyl)carbamoyl)pyrrolidin-1-yl)-3,3-dimethyl-1-oxobutan-2-yl)amino)-3-oxopropoxy)propanamido)acetamido)-4-((2-methoxy-3-(1-methyl-1H-1,2,4-triazol-3-yl)phenyl)amino)-N-methylpyridazine-3-carboxamide] | ≤20 | ≤20
CNC(=O)c1nnc(NC(=O)CNC(=O)COCCOCC(=O)N[C@H](C(=O)N2C[C@H](O)C[C@H]2C(=O)NCc2ccc(-c3scnc3C)cc2)C(C)(C)C)cc1Nc1cccc(-c2ncn(C)n2)c1OC [CPD-027, 6-((S)-13-((2S,4R)-4-Hydroxy-2-((4-(4-methylthiazol-5-yl)benzyl)carbamoyl)pyrrolidine-1-carbonyl)-14,14-dimethyl-4,11-dioxo-6,9-dioxa-3,12-diazapentadecanamido)-4-((2-methoxy-3-(1-methyl-1H-1,2,4-triazol-3-yl)phenyl)amino)-N-methylpyridazine-3-carboxamide] | ≤20 | ≤20

Now from value to molecule:

TYK2 Degradation (0.5 μM) [%] | TYK2 Degradation (5 μM) [%] | SMILES
≤20 | ≤20 | CNC(=O)c1nnc(NC(=O)CNC(=O)CCOCCOCCC(=O)N[C@H](C(=O)N2C[C@H](O)C[C@H]2C(=O)NCc2ccc(-c3scnc3C)cc2)C(C)(C)C)cc1Nc1cccc(-c2ncn(C)n2)c1OC [CPD-028, 6-((S)-15-((2S,4R)-4-Hydroxy-2-((4-(4-methylthiazol-5-yl)benzyl)carbamoyl)pyrrolidine-1-carbonyl)-16,16-dimethyl-4,13-dioxo-7,10-dioxa-3,14-diazaheptadecanamido)-4-((2-methoxy-3-(1-methyl-1H-1,2,4-triazol-3-yl)phenyl)amino)-N-methylpyridazine-3-carboxamide]
≤20 | ≤20 | CNC(=O)c1nnc(NC(=O)CNC(=O)COCCOCCOCC(=O)N[C@H](C(=O)N2C[C@H](O)C[C@H]2C(=O)NCc2ccc(-c3scnc3C)cc2)C(C)(C)C)cc1Nc1cccc(-c2ncn(C)n2)c1OC [CPD-029, 6-((S)-16-((2S,4R)-4-Hydroxy-2-((4-(4-methylthiazol-5-yl)benzyl)carbamoyl)pyrrolidine-1-carbonyl)-17,17-dimethyl-4,14-dioxo-6,9,12-trioxa-3,15-diazaoctadecanamido)-4-((2-methoxy-3-(1-methyl-1H-1,2,4-triazol-3-yl)phenyl)amino)-N-methylpyridazine-3-carboxamide]
≤20 | ≤20 | CNC(=O)c1nnc(NC(=O)CNC(=O)CCOCCOCCOCCC(=O)N[C@H](C(=O)N2C[C@H](O)C[C@H]2C(=O)NCc2ccc(-c3scnc3C)cc2)C(C)(C)C)cc1Nc1cccc(-c2ncn(C)n2)c1OC [CPD-030, 6-((S)-18-((2S,4R)-4-Hydroxy-2-((4-(4-methylthiazol-5-yl)benzyl)carbamoyl)pyrrolidine-1-carbonyl)-19,19-dimethyl-4,16-dioxo-7,10,13-trioxa-3,17-diazaicosanamido)-4-((2-methoxy-3-(1-methyl-1H-1,2,4-triazol-3-yl)phenyl)amino)-N-methylpyridazine-3-carboxamide]
≤20 | ≤20 | CNC(=O)c1nnc(NC(=O)CNC(=O)CCOCCOCCOCCOCCC(=O)N[C@H](C(=O)N2C[C@H](O)C[C@H]2C(=O)NCc2ccc(-c3scnc3C)cc2)C(C)(C)C)cc1Nc1cccc(-c2ncn(C)n2)c1OC [CPD-031, N^1—((S)-1-((2S,4R)-4-Hydroxy-2-((4-(4-methylthiazol-5-yl)benzyl)carbamoyl)pyrrolidin-1-yl)-3,3-dimethyl-1-oxobutan-2-yl)-N^16-(2-((5-((2-methoxy-3-(1-methyl-1H-1,2,4-triazol-3-yl)phenyl)amino)-6-(methylcarbamoyl)pyridazin-3-yl)amino)-2-oxoethyl)-4,7,10,13-tetraoxahexadecanediamide]
≤20 | ≤20 | CNC(=O)c1nnc(NC(=O)CNC(=O)COCCOCCOCCOCCOCC(=O)N[C@H](C(=O)N2C[C@H](O)C[C@H]2C(=O)NCc2ccc(-c3scnc3C)cc2)C(C)(C)C)cc1Nc1cccc(-c2ncn(C)n2)c1OC [CPD-032, N^1—((S)-1-((2S,4R)-4-Hydroxy-2-((4-(4-methylthiazol-5-yl)benzyl)carbamoyl)pyrrolidin-1-yl)-3,3-dimethyl-1-oxobutan-2-yl)-N^17-(2-((5-((2-methoxy-3-(1-methyl-1H-1,2,4-triazol-3-yl)phenyl)amino)-6-(methylcarbamoyl)pyridazin-3-yl)amino)-2-oxoethyl)-3,6,9,12,15-pentaoxaheptadecanediamide]
